Measurements as given in patent US7169932B2 (priority 2001, dated 2007).

How the values were obtained:
[1] = test system: 46I, 84V, 90M virus; test: Phenotypic susceptibility assay at Virologic, Inc.; assay type: cell-based, HIV-1; details: Human immunodeficiency virus 1
Protocol: Compounds were tested in phenotypic susceptibility assays at Virologic, Inc., (See Petropoulos C. J., Parkin N. T., Limoli K. L., Lie Y. S., Wrin T., Huang W., Tian H., Smith D., Winslow G. A., Capon D J, Whitcomb J M. 2000, “A novel phenotypic drug susceptibility assay for human immunodeficiency virus type 1,” Antimicrob Agents Chemother 44(4):920–928) or using the assay described here. MT-2 cells were infected with either HIV-1 NL4–3 or HIV-1 NL4–3(184V/L90M) and incubated in the presence of serial 0.5 log dilutions of test compounds. Three days later, culture supernatants were collected and virus production, as determined by p24 ELISA, was assayed. Percent inhibition was calculated as p24 concentration in compound-treated samples as compared to infected, compound-free controls. Inhibition of viral replication is determined by measuring reduction in HIV p24 present in the culture supernatant, using a Beckman-Coulter p24 HIV-1 Ag EIA kit and following the supplied protocol. Absorbance is read on a MRX microplate reader (Dynex Technologies). The EC50 was calculated as the concentration of compound that effected a decrease in the p24 production by infected, compound-treated cells to 50% of that produced by infected, compound-free cells.

[2] = target: T1, HIV-1 protease (Q7S) (Human immunodeficiency virus type 1 group M subtype B, UniProt P04585, Q495S); test: HIV-1 Protease RET Assay; assay type: biochemical; details: Ave. Ki (nM), RET assay, Q7S enzyme, pH 4.8, 37 C
T1 construct: made in house
Summary of the method: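 Ki values came from a RET assay on refolded Q7S protease (2 nM active dimer) cleaving RE(EDANS)SQNYPIVQK(DABCYL)R at 5 μM, read at ex 340/em 490 nm. Reactions ran 12 min at 37 C in 0.1M sodium acetate pH 4.8, 1M NaCl, 5 mM DTT, 10% DMSO; curves were fit with the Morrison tight-binding equation.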

[3] = test system: HIV-1; test: Cytopathic Effect (CPE) Inhibition Assay (XTT dye reduction); assay type: cell-based; details: Human immunodeficiency virus 1, 144 h, read-out: Ave CPE EC50 (mM), protection of infected cells, six days, XTT
Summary of the method: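 CEM-SS or MT-2 cells infected with HIV-1 RF or NL4–3 (moi 0.025–0.819), 2×10^4 cells/well, incubated six days with half-log compound dilutions. Viability read by XTT formazan at 450 nm; EC50 is the concentration restoring 50% of uninfected-control formazan, CC50 from uninfected treated cells, therapeutic index CC50/EC50.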

Row | SMILES | IC50 [1] | melting point | Ki [2] | EC50 [3]
1 | Cc1c(O)cccc1C(=O)N[C@@H](Cc1ccccc1)[C@H](O)C(=O)N1CSC(C)(C)[C@H]1C(=O)N[C@@H](C)c1ccccc1 [Example A20, (R)-3-((2S,3S)-2-Hydroxy-3-{[1-(3-hydroxy-2-methyl-phenyl)-methanoyl]-amino}-4-phenyl-butanoyl)-5,5-dimethyl-thiazolidine-4-carboxylic acid ((S)-1-phenyl-ethyl)-amide] | 147 nM | 114 to 115 °C | 0.13 nM | 37 nM
2 | CCOc1cccc(CNC(=O)[C@H]2N(C(=O)[C@@H](O)[C@H](Cc3ccccc3)NC(=O)c3cccc(O)c3C)CSC2(C)C)c1 [Example A26, (R)-3-((2S,3S)-2-Hydroxy-3-{[1-(3-hydroxy-2-methyl-phenyl)-methanoyl]-amino}-4-phenyl-butanoyl)-5,5-dimethyl-thiazolidine-4-carboxylic acid 3-ethoxy-benzylamide] | 321 nM | 105 to 107 °C | 0.38 nM | 119 nM
3 | Cc1nc(C)c(C(=O)N[C@@H](Cc2ccccc2)[C@H](O)C(=O)N2CSC(C)(C)[C@H]2C(=O)NCc2ccccc2C)s1 [Example B11, 2,4-Dimethyl-thiazole-5-carboxylic acid {1-benzyl-3-[5,5-dimethyl-4-(2-methyl-benzylcarbamoyl)-thiazolidin-3-yl]-2-hydroxy-3-oxo-propyl}-amide] | 1720 nM |  | 1.2 nM | 1180 nM
